Experiments:
[1] = system: non-insulin dependent type II diabetes patients; assay: Clinical test II; assay type: in vivo, human; details: for Fasting blood sugar: before medication 108.8 ± 15.10; for number of patients with fasting blood sugar level No change or increase / number of patients with reduction rate of fasting blood sugar level 20-10% / number of patients with reduction rate of fasting blood sugar level <10% / number of patients with reduction rate of fasting blood sugar level >20% / number of patients with total serum cholesterol No change or increase / number of patients with total serum cholesterol decreasing rate 20-10% / number of patients with total serum cholesterol decreasing rate <10% / number of patients with total serum cholesterol decreasing rate >20%: 12 weeks
Procedure: On the other hand, Clinical test II was performed in a group of 79 participants from non-insulin dependent diabetic patients.
79 non-insulin dependent type II diabetes patients whose blood sugar is well-controlled under dietary therapy (all were mongoloid Japanese) participated in Clinical test II. They were forbidden to use sulfonyl urea and biguanide agent which is a therapeutic agent for type II diabetes, and a fibrate series medicament, nicotinic acid, and probucol which is a serum fat decreasing agent; however use of an antihypertensive agent is not particularly prohibited. They participated on a voluntary basis after they signed informed consent for clinical test participation, which was proposed by a medical institution based on the Helsinki declaration. The participants consisted of 26 males and 53 females. An average age at the sign-up time was 58±9.9 years old (average value±standard deviation), ranging from 37 to 81 years old. The body weight of patients was divided by standard body weight obtained from the standard body-weight table issued by Meiji life Insurance Company. This index was 1.24±0.154 (average value±standard deviation) at the sign-up time, meaning that there are many obese persons. After 12 weeks, the body weight index decreased to 1.18±0.137(average value±standard deviation).
The number of patients having normal blood pressure was 58 (of them, 31 patients were taking an antihypertensive agent).

Rabbit = assay: Arteriosclerosis suppressing effect, rabbit on hyperfat feed; assay type: in vivo; details: 0.2 to 0.05% mixed to hyperfat feed
Text: As to prevention/therapy of arteriosclerosis, a big difference is observed in effect between medicaments conceivably effective in improving arteriosclerosis, such as fibrate series medicament, thiazolidine series medicament, probucol, and statin series medicament and a compound of the present invention.

[2] = Normal blood sugar group FBS < 130 mg/dl, 12th week
[3] = body weight fluctuation: No change or increase (total 29)
[4] = body weight fluctuation: No change or increase (total 31)
[5] = body weight fluctuation: Reduction of 3 kg or less (total 24)
[6] = body weight fluctuation: Reduction of 3 kg or less (total 25)
[7] = body weight fluctuation: Reduction of 3 kg or more (total 13)
[8] = body weight fluctuation: Reduction of 3 kg or more (total 18)

`COc1c(Cl)c(C)c(C=O)c(O)c1C/C=C(C)/C=C/[C@@]1(C)[C@H](C)CCC(=O)[C@@H]1C` [4-O-methylascochlorin] was tested, and the Fasting blood sugar ([1]; Normal blood sugar group FBS < 130 mg/dl, 8th week) was 109.0 ± 17.34 mg/dL, the “Fasting blood sugar, change vs before medication” value [1, 2] was “ns (n = 25)” and the Fasting blood sugar [1, 2] was 106.4 ± 17.80 mg/dL. The Total serum cholesterol ([1]; Normal group <220 mg/dl, 4th week, before medication 188.9 ± 21.55) was 177.9 ± 31.91 mg/dL, the “Total serum cholesterol, change vs before medication” value (shortened to “Total serum cholesterol, change”) ([1]; Normal group <220 mg/dl, 4th week, ns. = No significant difference) was “ns. (n = 14)” and the Total serum cholesterol ([1]; Normal group <220 mg/dl, 8th week, before medication 188.9 ± 21.55) was 176.0 ± 36.33 mg/dL. For the same compound, the “Total serum cholesterol, change” value ([1]; Normal group <220 mg/dl, 8th week, ns. = No significant difference) was “ns. (n = 14)”, the Total serum cholesterol ([1]; Normal group <220 mg/dl, 12th week, before medication 188.9 ± 21.55) was 181.2 ± 32.10 mg/dL and the “Total serum cholesterol, change” value ([1]; Normal group <220 mg/dl, 12th week, ns. = No significant difference) was “ns. (n = 18)”. The “Total serum cholesterol, change” value ([1]; Super high cholesterol group >300 mg/dl, 4th week) was −20.0% (n = 20), the Total serum cholesterol ([1]; Super high cholesterol group >300 mg/dl, 4th week, before medication 348.8 ± 56.36) was 273.8 ± 29.38 mg/dL and the “Total serum cholesterol, change” value ([1]; Super high cholesterol group >300 mg/dl, 8th week) was −28.9% (n = 20). The Total serum cholesterol ([1]; Super high cholesterol group >300 mg/dl, 8th week, before medication 348.8 ± 56.36) was 248.5 ± 36.01 mg/dL, the “Total serum cholesterol, change” value ([1]; Super high cholesterol group >300 mg/dl, 12th week) was −30.0% (n = 21) and the Total serum cholesterol ([1]; Super high cholesterol group >300 mg/dl, 12th week, before medication 348.8 ± 56.36) was 244.2 ± 36.59 mg/dL. For the same compound, the Serum neutral fat ([1]; abnormal high value group, greater than 120 mg/dl) was “significantly decreased”, the “body weight index (body weight divided by standard body weight)” value ([1]; after 12 weeks, at the sign-up time 1.24±0.154) was 1.18±0.137 and the “number of patients with fasting blood sugar level No change or increase” value [1, 3] was 11. For the same compound, the “number of patients with reduction rate of fasting blood sugar level 20-10%” value [1, 3] was 8, the “number of patients with reduction rate of fasting blood sugar level <10%” value [1, 3] was 7 and the “number of patients with reduction rate of fasting blood sugar level >20%” value [1, 3] was 3. For the same compound, the “number of patients with total serum cholesterol No change or increase” value [1, 4] was 11, the “number of patients with total serum cholesterol decreasing rate 20-10%” value [1, 4] was 6 and the “number of patients with total serum cholesterol decreasing rate <10%” value [1, 4] was 5. For the same compound, the “number of patients with total serum cholesterol decreasing rate >20%” value [1, 4] was 9, the “number of patients with fasting blood sugar level No change or increase” value [1, 5] was 4 and the “number of patients with reduction rate of fasting blood sugar level 20-10%” value [1, 5] was 8. For the same compound, the “number of patients with reduction rate of fasting blood sugar level <10%” value [1, 5] was 6, the “number of patients with reduction rate of fasting blood sugar level >20%” value [1, 5] was 6 and the “number of patients with total serum cholesterol No change or increase” value [1, 6] was 4. The “number of patients with total serum cholesterol decreasing rate 20-10%” value [1, 6] was 2, the “number of patients with total serum cholesterol decreasing rate <10%” value [1, 6] was 1 and the “number of patients with total serum cholesterol decreasing rate >20%” value [1, 6] was 18. The “number of patients with total serum cholesterol No change or increase” value [1, 7] was 1, the “number of patients with total serum cholesterol decreasing rate 20-10%” value [1, 7] was 0 and the “number of patients with total serum cholesterol decreasing rate <10%” value [1, 7] was 1. The “number of patients with total serum cholesterol decreasing rate >20%” value [1, 7] was 11, the “number of patients with fasting blood sugar level No change or increase” value [1, 8] was 3 and the “number of patients with reduction rate of fasting blood sugar level 20-10%” value [1, 8] was 3. For the same compound, the “number of patients with reduction rate of fasting blood sugar level <10%” value [1, 8] was 4, the “number of patients with reduction rate of fasting blood sugar level >20%” value [1, 8] was 8 and the “Blood pressure, Diastolic period” value ([1]; borderline hypertensive patients (n = 14), 4th week, before medication 92 ± 3.0) was 86 ± 2.4 mmHg. For the same compound, the “Blood pressure, Systolic period” value ([1]; borderline hypertensive patients (n = 14), 4th week, before medication 156 ± 5.4) was 149 ± 3.8 mmHg, the “Blood pressure, Diastolic period” value ([1]; borderline hypertensive patients (n = 14), 8th week, before medication 92 ± 3.0) was 86 ± 3.3 mmHg and the “Blood pressure, Systolic period” value ([1]; borderline hypertensive patients (n = 14), 8th week, before medication 156 ± 5.4) was 147 ± 3.3 mmHg. The “Blood pressure, Diastolic period” value ([1]; borderline hypertensive patients (n = 14), 12th week, before medication 92 ± 3.0) was 86 ± 4.1 mmHg, the “Blood pressure, Systolic period” value ([1]; borderline hypertensive patients (n = 14), 12th week, before medication 156 ± 5.4) was 149 ± 5.5 mmHg and the “blood sugar decreasing effect” value ([1]; group having a fasting blood sugar level of greater than 130 mg/dl) was “has a significant blood sugar decreasing effect”. For the same compound, the “Serum neutral fat, change vs before medication” value (“Serum neutral fat, change” for short) ([1]; group with serum neutral fat <120 mg/dl, 4th week) was −9.3% (n = 6), the Serum neutral fat ([1]; group with serum neutral fat <120 mg/dl, 4th week, before medication 96.2 ± 12.57) was 88.5 ± 32.93 mg/dL and the “Serum neutral fat, change” value ([1]; group with serum neutral fat <120 mg/dl, 8th week) was −15.7% (n = 7). For the same compound, the Serum neutral fat ([1]; group with serum neutral fat <120 mg/dl, 8th week, before medication 96.2 ± 12.57) was 85.7 ± 24.64 mg/dL, the “Serum neutral fat, change” value ([1]; group with serum neutral fat <120 mg/dl, 12th week) was −5.2% (n = 8) and the Serum neutral fat ([1]; group with serum neutral fat <120 mg/dl, 12th week, before medication 96.2 ± 12.57) was 90.3 ± 22.32 mg/dL. For the same compound, the “Serum neutral fat, change” value ([1]; group with serum neutral fat >120 mg/dl, 4th week) was −15.5% (n = 56), the Serum neutral fat ([1]; group with serum neutral fat >120 mg/dl, 4th week, before medication 215.7 ± 83.96) was 182.6 ± 68.26 mg/dL and the “Serum neutral fat, change” value ([1]; group with serum neutral fat >120 mg/dl, 8th week) was −23.2% (n = 52). For the same compound, the Serum neutral fat ([1]; group with serum neutral fat >120 mg/dl, 8th week, before medication 215.7 ± 83.96) was 172.7 ± 62.84 mg/dL, the “Serum neutral fat, change” value ([1]; group with serum neutral fat >120 mg/dl, 12th week) was −25.4% (n = 61) and the Serum neutral fat ([1]; group with serum neutral fat >120 mg/dl, 12th week, before medication 215.7 ± 83.96) was 167.8 ± 72.93 mg/dL. For the same compound, the “decrease of systolic pressure” value ([1]; hypertension group, 4 weeks after medication, text: no significant difference) was 10 mmHg, the “Blood pressure, Diastolic period” value ([1]; hypertensive patients (n = 7), 4th week, before medication 97 ± 3.0) was 91 ± 3.0 mmHg and the “Blood pressure, Systolic period” value ([1]; hypertensive patients (n = 7), 4th week, before medication 175 ± 10.4) was 165 ± 15.6 mmHg. For the same compound, the “Blood pressure, Diastolic period” value ([1]; hypertensive patients (n = 7), 8th week, before medication 97 ± 3.0) was 90 ± 5.1 mmHg, the “Blood pressure, Systolic period” value ([1]; hypertensive patients (n = 7), 8th week, before medication 175 ± 10.4) was 161 ± 13.9 mmHg and the “Blood pressure, Diastolic period” value ([1]; hypertensive patients (n = 7), 12th week, before medication 97 ± 3.0) was 89 ± 4.0 mmHg. The “Blood pressure, Systolic period” value ([1]; hypertensive patients (n = 7), 12th week, before medication 175 ± 10.4) was 158 ± 15.7 mmHg, the “blood sugar decreasing effect” value ([1]; normal blood sugar group, fasting blood sugar level of 130 mg/dl or less) was “does not have a blood sugar decreasing effect” and the “concentration of serum cholesterol” value ([1]; normal group, serum total cholesterol 220 mg/dl or less) was “did not change the concentration of serum cholesterol significantly”. For the same compound, the Serum neutral fat ([1]; normal value group, 120 mg/dl or less) was “only a tendency to decrease”, the antihypertensive effect ([1]; patients of type II diabetes complicated with borderline hypertensive) was “highly significant antihypertensive effect” and the total cholesterol values ([1]; super high value group and high value group) was “further significantly decreased”. The “death from circulatory failure” value (Rabbit) was “infarction derived from arteriosclerosis of the arteria coronaria and suppressing death”.

From patent US20050153870A1, “Medicinal composition for diagnosis, prevention, or therapy of multiple risk factor syndrome” (priority 2002, published 2005)
